US7956196B2, “1,3-dihydro-benzimidazol-2-ylidene amines as inhibitors of respiratory syncytial virus replication” (Tibotec Pharmaceuticals Ltd., priority 2005, dated 2011)

Columns and labels:
[1] = system: Respiratory Syncytial Virus; test: In vitro screening for activity against RSV, automated tetrazolium-based (MTT) colorimetric assay in HeLa cells; format: cell-based; settings: human respiratory syncytial virus, 168 h; protection against RSV cytopathology in HeLa cells, MTT readout seven days after infection; read-out: pIC50 (converted)
Text: In vitro screening of compounds of formula (I) for activity against RSV. The percent protection against cytopathology caused by viruses (antiviral activity or EC50) achieved by tested compounds and their cytotoxicity (CC50) are both calculated from dose-response curves. The selectivity of the antiviral effect is represented by the selectivity index (SI), calculated by dividing the CC50 (cytotoxic dose for 50% of the cells) by the EC50 (antiviral activity for 50% of the cells). The tables in the above experimental part list the category to which each of the prepared compounds belong: Compounds belonging to activity category “A” have a pEC50 (-log of EC50 when expressed in molar units) equal to or more than 7. Compounds belonging to activity category “B” have a pEC50 value between 6 and 7.
Automated tetrazolium-based colorimetric assays were used for determination of EC50 and CC50 of test compounds. Flat-bottom, 96-well plastic microtiter trays were filled with 180 μl of Eagle's Basal Medium, supplemented with 5% FCS (0% for FLU) and 20 mM Hepes buffer. Subsequently, stock solutions (7.8×final test concentration) of compounds were added in 45 μl volumes to a series of triplicate wells so as to allow simultaneous evaluation of their effects on virus- and mock-infected cells. Five five-fold dilutions were made directly in the microtiter trays using a robot system. Untreated virus controls, and HeLa cell controls were included in each test. Approximately 100 TCID50 of Respiratory Syncytial Virus was added to two of the three rows in a volume of 50 μl. The same volume of medium was added to the third row to measure the cytotoxicity of the compounds at the same concentrations as those used to measure the antiviral activity. After two hours of incubation, a suspension (4×10^5 cells/ml) of HeLa cells was added to all wells in a volume of 50 μl. The cultures were incubated at 37° C. in a 5% CO2 atmosphere. Seven days after infection the cytotoxicity and the antiviral activity was examined spectrophotometrically. To each well of the microtiter tray, 25 μl of a solution of MTT (3-(4,5-dimethylthiazol-2-yl)-2,5-diphenyltetrazolium bromide) was added. The trays were further incubated at 37° C. for 2 hours, after which the medium was removed from each cup. Solubilization of the formazan crystals was achieved by adding 100 μl 2-propanol. Complete dissolution of the formazan crystals were obtained after the trays have been placed on a plate shaker for 10 min. Finally, the absorbances were read in an eight-channel computer-controlled photometer (Multiskan MCC, Flow Laboratories) at two wavelengths (540 and 690 nm). The absorbance measured at 690 nm was automatically subtracted from the absorbance at 540 nm, so as to eliminate the effects of non-specific absorption.
The percent protection against cytopathology caused by viruses (antiviral activity or EC50) achieved by tested compounds and their cytotoxicity (CC50) were both calculated from dose-response curves. The selectivity of the antiviral effect is represented by the selectivity index (SI), calculated by dividing the CC50 (cytotoxic dose for 50% of the cells) by the EC50 (antiviral activity for 50% of the cells).

With `Cc1ccc(O)c(Cn2c(=NC3CCN(CCN)CC3)n(Cc3ccc(C#N)cc3)c3ccccc32)n1` [Compound 55] the IC50 [1] was 63.1 nM and the melting point was 212 °C.

`Cc1ccc(O)c(Cn2c(=NCCc3ccc(Br)cc3)n(Cc3ccc(C#N)cc3)c3ccccc32)n1` [Compound 57] gave an IC50 [1] of 251 nM and a melting point of 204 °C.

Work on `Cc1ccc(CCCO)c(NCc2ccc3c(c2)n(Cc2nc(C)ccc2O)c(=N)n3C)c1` [Compound 58] yielded an IC50 [1] of 3.16 nM and a melting point of 195 °C.
